# Results as given in patent publication US8987246B2, “Methods for treatment of autism spectrum disorder” (The Johns Hopkins University, priority 2012, dated 2015).
# Experiments:
# [1] = tested on: individuals with SLOS; conditions: cited from earlier work
# [2] = tested on: subjects with Smith-Lemli-Opitz Syndrome; test: Retrospective analysis of rate of change in current state ADI scores before and after cholesterol supplementation; assay type: in vivo, human; conditions: for Cholesterol effect (regression coefficient) on average change in ADI Nonverbal score per year / Cholesterol effect (regression coefficient) on average change in ADI Repetitive score per year / Cholesterol effect (regression coefficient) on average change in ADI Social score per year / Cholesterol effect (regression coefficient) on average change in ADI Verbal score per year: negative = improvement
# Method: Cholesterol Supplementation Improved Behavioral Symptoms and May Improve ASD Features in SLOS. The Autism Diagnostic Interview was conducted with 6 SLOS individuals, and data was obtained for 3 “current state” time-points: age 4-5, just before starting cholesterol supplementation, and present while on cholesterol. The change in the score of three ADI algorithm domains—Social, Communication, and Restricted, Repetitive, and Stereotyped Behavior—was estimated. Because the time between visits varied from subject to subject, a model was developed to control for age and time lapse between tests. A detailed description of the model and outcomes is included in Example 1. In summary, on the Social domain, the individuals on cholesterol supplementation improved by an average of 7.07 points more than children not on supplementation (p value 0.008). The ADI Communication domain has a non-verbal score that is completed for all individuals and a verbal score that is completed in those individuals who have phrase speech. The value for the non-verbal score is within the verbal total score. In the non-verbal children, the language domain score improved 2.51, p value 0.04. […] In the Repetitive domain, the children worsened an average of 1.54 points (p value<0.001) (Example 1).
# The variables listed in the analysis of the primary outcomes are below. i=1, . . . , 6 children, j=2, 3 visits • socialchij=average change in social measure per year for child i between age at visit j and age at visit j−1. (More specifically, socialchij is social score at visit j minus social score at visit j−1, divided by the number of years between visits j and j−1.) • verbalchij=average change in verbal measure per year for child i between age at visit j and age at visit j−1. • nonverbalchij=average change in nonverbalchij measure per year for child i between age at visit j and age at visit j−1. • repetchij=average change in repetitive measure per year for child i between age at visit j and age at visit j−1.
# ageij=age of child i at visit j at which measure was performed
# agedifij=number of years between visit j and visit j−1
# agecholij=age at which cholesterol supplementation began for child i
# cholij=1 if cholesterol supplementation has occurred at prior to visit j for child i.
# Note that the large improvements are consistent with large negative values. In other words, if a child has a large improvement in social score between visits j−1 and j, this will be reflected as a large negative value for socialchij.
# So, the idea is to model the average change in scores before and after supplementation, adjusting for age, the number of years between visits, and the age at which supplementation occurred. To do this, our linear model for “social” is socialchij=β0i+[…]+β2agedifij+β3agecholij+β4cholij+eij
# We use a linear regression model that allows for correlation between observations from the same individual. Using this model, we estimate the […] parameters in the model, which measure the direction and magnitude of the association between social score change and each of the covariates (i.e., age, age difference, age at cholesterol, and cholesterol). The same model was fit for each of the four outcomes. The table below gives the estimated coefficients for each of the 4 primary outcome variables.
# [3] = 6 SLOS children, model with age, age difference, age at cholesterol, cholesterol
# [4] = model leaving out age at cholesterol
# [5] = model leaving out age difference from last visit
smiles,measurement,setting,value
"CC(C)CCC[C@@H](C)[C@H]1CC[C@H]2[C@@H]3CC=C4C[C@@H](O)CC[C@]4(C)[C@H]3CC[C@]12C [Cholesterol, cholesterol]",Developmental status over time with cholesterol supplementation,"[1]; SLOS, one group",did not improve
same,"Growth, speech articulation and neurodevelopmental status with cholesterol supplementation","[1]; SLOS, some reports",improves
same,"Irritability, sleep disturbance and obsessive compulsive behavior with cholesterol supplementation",[1]; individuals with SLOS,improve with cholesterol supplementation
same,Cholesterol effect (regression coefficient) on average change in ADI Nonverbal score per year,[2]; [3],−2.51
same,Cholesterol effect (regression coefficient) on average change in ADI Repetitive score per year,[2]; [3],1.54
same,Cholesterol effect (regression coefficient) on average change in ADI Social score per year,[2]; [3],−7.07
same,Cholesterol effect (regression coefficient) on average change in ADI Verbal score per year,[2]; [3],−6.97
same,ADI Repetitive domain: average worsening,"[2]; SLOS children on cholesterol supplementation, p value<0.001",1.54 points
same,ADI Social domain: average improvement more than children not on supplementation,"[2]; SLOS individuals on cholesterol supplementation, p value 0.008",7.07 points
same,"Association of cholesterol supplementation with social, verbal and non-verbal scores (correlation matrix, FIG. 1)","[2]; children who have already begun supplementation, not accounting for age or other factors",scores tend to be lower on average
same,Social and communication abilities with cholesterol supplementation,[2]; in SLOS,improvement was found
same,Cholesterol effect (regression coefficient) on average change in ADI Nonverbal score per year,[2]; [4],−2.56
same,Cholesterol effect (regression coefficient) on average change in ADI Repetitive score per year,[2]; [4],1.23
same,Cholesterol effect (regression coefficient) on average change in ADI Social score per year,[2]; [4],−5.14
same,Cholesterol effect (regression coefficient) on average change in ADI Verbal score per year,[2]; [4],−6.77
same,Cholesterol effect (regression coefficient) on average change in ADI Nonverbal score per year,[2]; [5],−2.05
same,Cholesterol effect (regression coefficient) on average change in ADI Repetitive score per year,[2]; [5],1.45
same,Cholesterol effect (regression coefficient) on average change in ADI Social score per year,[2]; [5],−6.97
same,Cholesterol effect (regression coefficient) on average change in ADI Verbal score per year,[2]; [5],−4.14
same,ADI language domain (non-verbal) score improvement,"[2]; non-verbal SLOS children on cholesterol supplementation, p value 0.04",2.51
same,ADI verbal score average change (given as increase),"[2]; verbal SLOS children on cholesterol supplementation, p value<0.001",6.97 points
